The record followed here is patent US11814366B2, “Antiviral compounds and use thereof” (UNIVERSITA DEGLI STUDI DI SIENA, priority 2018, dated 2023).

Molecules are shown by their SMILES.

Data set [1] can be described thus: Cytotoxicity, XTT test. The following applies: human.
The subject of data set [2] is H1N1. Description: H1N1 inhibition assay on MDCK cells. Format: cell-based, Influenza virus H1N1. As for the experimental part: MDCK cells were pre-plated in 96-well plates. The following day, concentrations of compounds ranging from 50 μM to 0.0001 μM in DMSO were mixed with H1N1 (MOI 0.05 pfu/cell) and incubated for 1 hour at 37° C. The mixtures were subsequently added to the cells for 1 h at 37° C., after a washout, cells were overlaid with MEM for 16 h at 37° C. Cells were then fixed and subjected to specific immunostaining using a Flu A monoclonal antibody (Merck 5001) in order to visualize infected cells. EC50 were calculated by comparing numbers of infected cells in treated and untreated wells. The effective concentration producing 50% reduction in plaque formation (EC50) was determined using Prism software. The selectivity index (SI) was calculated by dividing the CC50 by the EC50 value.

Data set [3] concerns HIV Strain NL4-3. Description: HIV-1 inhibition assay, strain NL4-3, TZM-bl cells, CPRG readout. Format: cell-based. The following applies: Human immunodeficiency virus 1, NL43, virus pretreated 1 h at 37° C. with compound. As to the method:
The human TZM-bl indicator cell line (obtained from the NIH AIDS reagents program, cat. Nr 8129, www.aidsreagent.org) was maintained at 37° C. and 5% CO2 in Dulbecco's modified Eagle's medium (DMEM) medium containing 10% fetal bovine serum, 50 μg/ml penicillin, and 50 μg/ml streptomycin. The HIV-1 laboratory strains NL (AD8) (NIH AIDS reagents program, cat. Nr, 11346) and NL4.3 (NIH AIDS reagents program, cat. Nr. 114) were titrated as previously reported by Tiberi et al (2014). Briefly, serial 5-fold dilutions of each virus were made in quadruplicate wells in 96-well culture plates, in a total volume of 100 μl of growth medium (DMEM), for a total of 8 dilution steps. Freshly trypsinized cells (20,000 cells in 100 μl of growth medium containing 75 μg/mL DEAE-dextran) were added to each well, and the plates were incubated at 37° C. in a humidified 5% CO2-95% air environment. After 48 h of incubation, the medium was removed and viral infection was quantified using a β-galactosidase (CPRG) assay (Roche). Twenty thousand TZM-bl cells/well were seeded in 96-well plates in complete DMEM supplemented with 30 μg/ml DEAE-dextran (Sigma-Aldrich). Three hundred times the 50% tissue culture infective dose (TCID50)/ml of each strain was pretreated for 1 h at 37° C. with six serial dilutions (10000 nM, 2000 nM, 400 nM, 80 nM, 16 nM, 3.2 nM) and then added to the cells. Vehicle (0.1% dimethyl sulfoxide [DMSO])-treated cells served as a negative control. […] After 2 days, viral infection was quantified using a CPRG assay (Roche cat nr 11379119103). The inhibitory curves were fitted by nonlinear regression, allowing for the calculation of the 50% effective concentration (EC50) using the Prism software. To evaluate the cell toxicity of the compounds, the metabolic XTT [2,3-bis-(2-methoxy-4-nitro-5-sulfophenyl)-2H-tetrazolium-5-carboxanilide] test (Sigma-Aldrich) was performed according to the manufacturer's instructions.

Data set [4] can be described thus: Cell viability (MTS) assay, Huh-7 cells. The format is cell-based. The following applies: human, conditions of the DENV-2 assay (Table 6). As for the experimental part: Cell viability was measured using the MITS [3-(4,5-dimethylthiazol-2-yl)-5-(3 carboxy methoxy phenyl)-2-(4-sulfophenyl)-2H-tetrazolium] assay. Cell cultures were seeded in 96-well plates and were incubated with different concentrations of compounds of the invention in triplicate under the same experimental conditions described for the antiviral assays. Cell viability was determined using the CellTiter 96 Proliferation Assay Kit (Promega, Madison, WI, USA) according to the manufacturer's instructions. Absorbances were measured using a Microplate Reader (Model 680, BIORAD) at 490 nm. The effect on cell viability at different concentrations of the compound was expressed as a percentage, by comparing absorbances of treated cells with those of cells incubated with culture medium and equal volumes of vehicle. The 50% cytotoxic concentrations (CC50) and 95% confidence intervals (CIs) were determined using Prism software (Graph-Pad Software, San Diego, CA).

The test system of data set [5] is HSV2. The data set can be described thus: Virucidal assay. Format: cell-based, Herpes 2 virus (HSV-2). The following applies: 10 μM, 2 h at 37° C., titrated at dilutions where compound no more active. As to the method:
Approximately 10^5 PFU of HSV2 plus 10 μM of 15b in DMSO were added to MEM and mixed in a total volume of 100 μl. The virus-compound mixtures were incubated for 2 h at 37° C. then diluted serially to the non-inhibitory concentration of test compound; the residual viral infectivity was determined by viral plaque assay (FIG. 2).

In data set [6] the test system is HCMV. Description: HCMV inhibition assay on HELF cells. Format: cell-based, HCMV strain Towne. The following applies: Human betaherpesvirus 5, HELF. As to the method: HELF cells were pre-plated in a 96-well plate. The following day concentrations of compounds ranging from 50 μM to 0.0001 μM in DMSO were mixed with HCMV (MOI 0.005 pfu/cell) and incubated for 1 hour at 37° C. The mixtures were subsequently added to the cells, which were then incubated at 37° C. for 3 h; monolayers were then washed and overlaid with 1.2% methylcellulose medium supplemented with 3% FCS and 1 mM sodium pyruvate. After five days incubation, cells were observed under an inverted Zeiss LSM510 fluorescence microscope (Zeiss, Oberkochen, Germany) and the EC50 were calculated by comparing GFP positive cells in treated and untreated wells. The effective concentration producing 50% reduction in plaque formation (EC50) was determined using Prism software. The selectivity index (SI) was calculated by dividing the CC50 by the EC50 value.

The subject of data set [7] is DENV-2. Description: DENV plaque reduction assay on Huh-7 cells. Format: cell-based, Dengue virus. As for the experimental part:
The effect of compounds on DENV infection was evaluated by plaque reduction assay. Huh-7 cells were pre-plated 24 h in advance in 24-well plates at a density of 10^5 cells. Concentrations of compounds ranging from 50 μM to 0.0001 μM in DMSO were mixed with DENV-2 (MOI 0.01 pfu/cell) and incubated for 1 hour at 37° C. The mixtures were subsequently added to the cells, which were then incubated at 37° C. for 2 h. The virus inoculum was then removed and the cells washed and overlaid with a medium containing 1.2% methylcellulose (Sigma). After further incubation at 37° C. for 72 h cells were fixed and stained with 0.1% crystal violet in 20% ethanol and viral plaques counted. The effective concentration producing 50% reduction in plaque formation (EC50) were determined using Prism software by comparing drug-treated wells with wells treated with medium and DMSO. The selectivity index (SI) was calculated by dividing the CC50 by the EC50 value.

Consider `O=C1NC(=S)N(CCc2ccccc2)C(=O)/C1=C\c1ccc(-c2ccc(C(=O)O)c(O)c2)[nH]1` [Compound 15b, (Z)-4-(5-((4,6-dioxo-1-phenethyl-2-thioxotetrahydropyrimidin-5(2H)-ylidene)methyl)-1H-pyrrol-2-yl)-2-hydroxybenzoic Acid], for which the CC50 in data set [1] was greater than 20 µM; in data set [4], 7.9 µM. The SI selectivity index in data set [2] (H1N1, CC50 divided by EC50) was greater than 77; in data set [7] (DENV-2, CC50 divided by EC50) it was 5.6. Moreover, the EC50 in data set [2] (Influenza A virus, H1N1, MDCK) came out at 1.24 µM; in data set [3] it was 0.064 µM; in data set [6] it was 0.118 µM; in data set [7] (Dengue virus, DENV2, Huh-7, DENV-2 infected cells), 1.4 µM. Besides, the EC90 in data set [2] (Influenza A virus, H1N1, MDCK) is 3.88 µM; in data set [6], 0.772 µM. The “residual viral infectivity after virucidal incubation” value in data set [5] is “never regained”.
